{"source": "patent US5484803A", "about": "“Transcutaneous in vivo activation of photosensitive agents in blood” (priority 1995, dated 1996)", "key": {"[1]": {"conditions": "in vivo; cited from earlier work"}, "mice": {"test_system": "mice", "assay": "Tolerability of light exposure starting 15 min post-injection (lethality)", "assay_type": "in vivo, Balb/c mice", "experimental": "In order to determine the level of BPD in plasma during the light treatment, the following experiment was carried out. Fourteen Balb/c mice (22±1 g of weight) were injected with liposomal BPD at 20 μg/mouse (0.9 mg/kg) in 200 μl PBS per mouse. Blood samples were obtained by heart puncture at various time intervals between 15 min and 2 hours post-injection. Exposure to light started at 15 min post-injection for some mice. The BPD concentration in plasma was determined as described above.\nAt 2 hours post-injection, i.e., at the time point corresponding to the end of 1 hour exposure to light (108 J/cm^2) in the first example, the plasma level of BPD was 2.44 μg/ml. At the beginning of exposure to light, in the same example, the plasma level of BPD was about 4 μg/ml. To further evaluate skin photosensitivity at these low levels, mice were exposed to light at an earlier time post-injection, i.e., at 15 min, when the level of BPD in plasma was 6.32 μg/ml."}, "[2]": {"assay": "Transcutaneous activation: photodegradation of BPD in plasma in vivo", "set-up": "species or system mice", "conditions": "for BPD in Plasma: individual values; for photodegraded BPD, Dose / Photodegraded BPD: in vivo", "excerpt": "The light box was custom built at a workshop at the University of British Columbia. It was composed of two layers of 14 75 W tungsten-halogen reflector bulbs (General Electric), which illuminated the treatment area from the top and from the bottom. Light was filtered by 1) a set of filters comprising yellow and red plastic films which absorbed most of the light at wavelengths shorter than 600 nm and 2) 15 mm thick water filters which absorbed light above 900 nm. Cooling was provided by a steady flow of cold water in the water filters and by a set of 5 fans. The light intensity was measured by an IL 1350 Photometer (International Light).\nThe intensity of light delivered by the top and bottom sets of bulbs was not uniform. The bottom set delivered 33-40 mW/cm^2 as measured at floor level of the exposure chamber, while the top set delivered 27-33 mW/cm^2 as measured at the skin surface of the backs of the animals. The range described resulted from inconsistent influence at the horizontal plane of irradiation. In addition, mice moved about during light exposure, so that at various times different parts of their skin received different amounts of light. Therefore, the doses delivered to the surface of mice skin must be approximated and the calculations have been based on an intensity of 30 mW/cm^2.\nDetermination of BPD Concentration in Plasma: Plasma samples were obtained by centrifugation of blood collected from mice and stored frozen at -20° C. until assessment. The concentration of BPD in the samples was determined by fluorometry using a Jasco Model FP-770 (Japan Spectroscopic Co.) spectrofluorometer and a microcuvette (Far UV Quartz Cell, Starna Cells Inc.). Excitation and emission wavelengths were 439 and 699 nm, respectively. Plasma samples were diluted 20-fold with PBS containing 1% Triton® X-100 immediately before fluorescence was determined. BPD standards were prepared in 5% mouse plasma in PBS with 1% Triton® X-100. Under these conditions the relationship between the concentration of BPD and units of fluorescence was linear (correlation coefficient >0.99) for concentrations between 0.1 ng/ml and 1 μg/ml. The limit of detection was below 0.1 ng/ml sample which corresponded to 2 ng/ml plasma. […] The 699 nm fluorescence peak of BPD was virtually free from any interference.\nFourteen mice (weight 22±1 g) were used in this study. Twelve mice were injected with 20 μg (0.9 mg/kg) of liposomal BPD (in 200 μl) and kept in the dark for 1 hour before exposure to light. The mice each were exposed to light for 30 min, 1 hour or 1.5 hours, which delivered light doses to the skin surface of 54, 108 and 162 J/cm^2, respectively. Immediately after light exposure, blood samples were obtained. At the corresponding times, blood samples were obtained from two mice injected with BPD, but not exposed to light. Two additional mice were tested one hour after injection.\nThe aim of this study was to determine light penetration of the tissues to activate BPD. It was assumed that the substantial photodegradation of BPD in blood would represent substantial activation of BPD.\nThe BPD plasma concentration was then determined by fluorescence. The concentrations of unchanged BPD in the plasma of exposed and unexposed control mice were compared."}, "[3]": {"conditions": "1 1/2 h - C, no light, 2 1/2 h post injection, 0.9 mg/kg, 150 min"}, "[4]": {"conditions": "1 1/2 h light, 162 J/cm^2, 2 1/2 h post injection, 0.9 mg/kg, 150 min"}, "[5]": {"conditions": "30 min - C, no light, 1 1/2 h post injection, 0.9 mg/kg, 90 min"}, "[6]": {"conditions": "30 min light, 54 J/cm^2, 1 1/2 h post injection, 0.9 mg/kg, 90 min"}}, "note": "“And” between values parts separate entries of the source, which are not always exact repeats. Identical values can stand only once.", "data": [{"substance": "benzoprophyrin derivative monoacid ring A [BPD]", "values": [{"measurement": "time of accumulation of BPD in the skin", "setting": "[1]", "value": "up to 5 hours"}, {"measurement": "starting plasma level of BPD lethal to mice", "setting": "mice; light exposure of about 50 J/cm^2 whole body irradiation, 0.9 mg/kg, 15 min", "value": "about 6.5 μg/ml"}, {"measurement": "discomfort on light exposure", "setting": "mice; light from 15 min post-injection", "value": "almost immediately uncomfortable"}, {"measurement": "death of mice on light exposure", "setting": "mice; liposomal BPD 0.9 mg/kg, light from 15 min post-injection, 54 J/cm^2", "value": "died after 30 min of exposure"}, {"measurement": "BPD in Plasma, Mean ± SD", "setting": "[2]; 0 h - C, no light, 1 h post injection, 0.9 mg/kg", "value": "1.243 ± 0.262", "unit": "µg/mL"}, {"measurement": "BPD in Plasma", "setting": "[2]; 0 h - C, no light, 1 h post injection, 0.9 mg/kg, 60 min", "value": "1.428 µg/mL and 1.058 µg/mL"}, {"measurement": "BPD in Plasma, Mean ± SD", "setting": "[2]; [3]", "value": "0.690 ± 0.048", "unit": "µg/mL"}, {"measurement": "BPD in Plasma", "setting": "[2]; [3]", "value": "0.724 µg/mL and 0.656 µg/mL"}, {"measurement": "BPD in Plasma, Mean ± SD", "setting": "[2]; [4]", "value": "0.168 ± 0.033", "unit": "µg/mL"}, {"measurement": "BPD in Plasma", "setting": "[2]; [4]", "value": "0.191 µg/mL and 0.145 µg/mL"}, {"measurement": "BPD in Plasma, Mean ± SD", "setting": "[2]; [5]", "value": "0.930 ± 0.441", "unit": "µg/mL"}, {"measurement": "BPD in Plasma", "setting": "[2]; [5]", "value": "0.618 µg/mL and 1.242 µg/mL"}, {"measurement": "BPD in Plasma, Mean ± SD", "setting": "[2]; [6]", "value": "0.596 ± 0.042", "unit": "µg/mL"}, {"measurement": "BPD in Plasma", "setting": "[2]; [6]", "value": "0.566 µg/mL and 0.626 µg/mL"}, {"measurement": "BPD in Plasma, Mean ± SD", "setting": "[2]; 1 h - C, no light, 2 h post injection, 0.9 mg/kg", "value": "0.944 ± 0.421", "unit": "µg/mL"}, {"measurement": "BPD in Plasma", "setting": "[2]; 1 h - C, no light, 2 h post injection, 0.9 mg/kg, 120 min", "value": "0.646 µg/mL and 1.242 µg/mL"}, {"measurement": "BPD in Plasma, Mean ± SD", "setting": "[2]; 1 h light, 108 J/cm^2, 2 h post injection, 0.9 mg/kg", "value": "0.301 ± 0.061", "unit": "µg/mL"}, {"measurement": "BPD in Plasma", "setting": "[2]; 1 h light, 108 J/cm^2, 2 h post injection, 0.9 mg/kg, 120 min", "value": "0.258 µg/mL and 0.344 µg/mL"}, {"measurement": "photodegraded BPD, Dose", "setting": "[2]; 54 J/cm^2", "value": 0.334, "unit": "µg/mL"}, {"measurement": "Photodegraded BPD", "setting": "[2]; 54 J/cm^2, 0.9 mg/kg", "value": 36, "unit": "%"}, {"measurement": "photodegraded BPD, Dose", "setting": "[2]; 108 J/cm^2", "value": 0.643, "unit": "µg/mL"}, {"measurement": "Photodegraded BPD", "setting": "[2]; 108 J/cm^2, 0.9 mg/kg", "value": 68, "unit": "%"}, {"measurement": "photodegraded BPD, Dose", "setting": "[2]; 162 J/cm^2", "value": 0.522, "unit": "µg/mL"}, {"measurement": "Photodegraded BPD", "setting": "[2]; 162 J/cm^2, 0.9 mg/kg", "value": 76, "unit": "%"}, {"measurement": "BPD photodegraded in blood in vivo", "setting": "[2]; light doses of 54-162 J/cm^2, 0.9 mg/kg", "value": "36-76%"}, {"measurement": "plasma concentrations of BPD at the beginning of exposure to light", "setting": "[2]; present study, 0.9 mg/kg, 1 hour after injection", "value": "above 3 μg/ml"}]}]}
